Measurements taken from patent US20240350441A1, “PHARMACEUTICAL FORMULATION AND A PROCESS FOR ITS PREPARATION” (SAVA HEALTHCARE LTD, priority 2021, published 2024).
Structures can show the parent of a compound that is named as a salt.

Assays:
[1] = system: Cyclophosphamide induced neutropenia; assay: Cyclophosphamide induced neutropenia, hematological parameters (Example 10); type: in vivo, Female Swiss Albino mice; conditions: for Anti-neutropenic activity (words): inference from table 8A
Method: (§1) • 1. To induce neutropenia by administration of cyclophosphamide. • 2.
(§2) Materials: Female Swiss Albino mice weighing between 25-27 g was procured from Global Bioresearch Solutions Pvt Ltd., Pune.
(§3) On day 0, blood was withdrawn from all animals for basal hematological parameters. All the groups of animals except placebo group were injected with 150 mg/kg of cyclophosphamide through intraperitoneal route (i.p.), while group 1 was injected with water for injection, i.p. On Day 3, blood was withdrawn from all animals for Total and differential count (neutrophils, lymphocytes, and monocytes). The animals of group 2 to 7 were dosed with one additional dose of 100 mg/kg cyclophosphamide on Day 4. […] The cyclophosphamide control group was injected with water for injection from day 5 to day 9. On day 10, blood was withdrawn from all animals for total and differential count (neutrophils, lymphocytes, and monocytes), platelets, liver parameters AST (aspartate aminotransferase), ALT (alanine aminotransferase), and renal parameters—serum creatinine, blood urea nitrogen and uric acid.
(§4) • Pure Picroside 1—1 tablet was dissolved in 0.1 ml of sterile water for injection and 0.1 ml was injected as subcutaneous injection. • The degraded Picroside 1 without salt (cinnamic acid of the present disclosure)—1 tablet was dissolved in 0.1 ml of sterile water for injection and 0.1 ml was injected as subcutaneous injection. • The Cinnamic acid low dose (0.6 mg/tablet) treated tablet was dissolved in 0.1 ml of sterile water for injection and 0.1 ml was injected as subcutaneous injection. • The Cinnamic acid high dose treated (6 mg/tablet) tablet was dissolved in 0.1 ml of sterile water for injection and 0.1 ml was injected as subcutaneous injection.

[2] = Solubility/stability of injectable cinnamic acid 6 mg/mL in diluents (HPLC, ICH); type: physicochemical; conditions: zero day
Method: 6 mg of cinnamic acid was dissolved in 300 μl of 100% ethanol, sonicated for 5 min and then diluted to 1 ml with 5% PEG 400/5% DMSO/5% ethyl lactate to obtain a clear solution of cinnamic acid in the injectable form (injectable formulation). The formulation was evaluated for stability as per ICH guidelines.

[3] = system: Cyclophosphamide induced hepatotoxicity and renal changes; assay: Hepatic and renal parameters in cyclophosphamide induced neutropenia (Example 10); type: in vivo, Female Swiss Albino mice; conditions: for BUN (blood urea nitrogen) / SGOT Serum glutamic oxaloacetic transaminase / SGPT (Serum glutamic pyruvic transaminase) / Serum Creatinine / Uric acid: day 10
Method: as §1, §2, §3, §4

[4] = system: neutropenia; assay: Efficacy dose for anti-neutropenic activity and human equivalent dose; type: in vivo, mice
Method: The animal efficacy dose of the cinnamic acid prepared in accordance with the present disclosure was 0.6 mg/mice or 0.6 mg/25 g or 6 mg/250 g or 24 mg/kg mice.
The human dose of the cinnamic acid prepared in accordance with the present disclosure, AED (animal equivalent dose) was divided by 12.3=24/12.3=1.95 mg/kg HED (human equivalent dose).
The animal efficacy dose of the cinnamic acid prepared in accordance with the present disclosure was 6 mg/25 g or 60 mg/250 g mice or 240 mg cinnamic acid/kg.
The human dose of the cinnamic acid prepared in accordance with the present disclosure, AED (animal equivalent dose) was divided by 12.3=240/12.3=19.51 mg/kg HED (human equivalent dose).

[5] = Day 0, basal, 0.6 mg/tablet low dose
[6] = Day 0, basal, 6 mg/tablet high dose
[7] = Day 3, after cyclophosphamide, before treatment, 0.6 mg/tablet low dose
[8] = Day 3, after cyclophosphamide, before treatment, 6 mg/tablet high dose
[9] = Day 10, treated day 5 for 5 days, 0.6 mg/tablet low dose, 1 tablet per animal per day
[10] = Day 10, treated day 5 for 5 days, 6 mg/tablet high dose, 1 tablet per animal per day
[11] = vs CP control, day 10, cinnamic acid at both 0.6 mg/tablet low dose and 6 mg/tablet high dose
[12] = 0.6 mg/tablet low dose, 1 tablet per animal per day for 5 days
[13] = 6 mg/tablet high dose, 1 tablet per animal per day for 5 days
[14] = vs CP control, cinnamic acid at both 0.6 mg/tablet low dose and 6 mg/tablet high dose
[15] = Day 0, basal, G-CSF 2 μg, Picroside tablets groups
[16] = Day 3, after cyclophosphamide, before treatment, G-CSF 2 μg, Picroside tablets groups
[17] = Day 10, treated day 5 for 5 days, G-CSF 2 μg s.c., others 1 tablet per animal per day
[18] = G-CSF 2 μg s.c., others 1 tablet per animal per day for 5 days

Compound: O=C(O)C=Cc1ccccc1 [The commercial synthetic Cinnamic acid, 3-Phenyl-2-propenoic acid]
- % Lymphocytes [1, 5]: 45.17%
- % Monocytes [1, 5]: 6.66%
- % Neutrophils [1, 5]: 40.33%
- No of Platelets [1, 5]: 736600 per cu · mm of blood
- Total WBC Count [1, 5]: 7465 per cu · mm of blood
- % Lymphocytes [1, 6]: 46.83%
- % Monocytes [1, 6]: 6.82%
- % Neutrophils [1, 6]: 40.17%
- No of Platelets [1, 6]: 772500 per cu · mm of blood
- Total WBC Count [1, 6]: 7237 per cu · mm of blood
- % Lymphocytes [1, 7]: 83.67%
- % Monocytes [1, 7]: 1.82%
- % Neutrophils [1, 7]: 6.50%
- No of Platelets [1, 7]: 630500 per cu · mm of blood
- Total WBC Count [1, 7]: 2289 per cu · mm of blood
- % Lymphocytes [1, 8]: 84%
- % Monocytes [1, 8]: 1.66%
- % Neutrophils [1, 8]: 6.333%
- No of Platelets [1, 8]: 637000 per cu · mm of blood
- Total WBC Count [1, 8]: 2306 per cu · mm of blood
- % Lymphocytes [1, 9]: 61%
- % Monocytes [1, 9]: 5.82%
- % Neutrophils [1, 9]: 27.67%
- No of Platelets [1, 9]: 641400 per cu · mm of blood
- Total WBC Count [1, 9]: 4460 per cu · mm of blood
- % Lymphocytes [1, 10]: 53%
- % Monocytes [1, 10]: 5.82%
- % Neutrophils [1, 10]: 33.17%
- No of Platelets [1, 10]: 660300 per cu · mm of blood
- Total WBC Count [1, 10]: 5389 per cu · mm of blood
- Anti-neutropenic activity (words) ([1]; listed as The commercial synthetic cinnamic acid): active to address neutropenia
- Effect on % lymphocytes [1, 11]: significant (p<0.001) decrease in % lymphocytes
- Effect on % monocytes [1, 11]: significantly (p<0.001) reversed
- Effect on % neutrophil [1, 11]: significantly (p<0.001) alleviated the cyclophosphamide-induced neutropenia
- Effect on platelet count [1, 11]: did not cause significant change in the platelet count
- Effect on total WBC count [1, 11]: significantly (p<0.001) reversed the cyclophosphamide induced decrease in WBC count
- HPLC area ([2]; 30% Ethanol with 3.5% PEG400): 3128043
- HPLC area ([2]; 30% Ethanol with 5% DMSO): 3276296
- HPLC area ([2]; 30% Ethanol with 5% Ethyl lactate): 3175284
- HPLC area ([2]; 100% Methanol): 3379040
- BUN (blood urea nitrogen) [3, 12]: 9.533 mmol/L
- SGOT Serum glutamic oxaloacetic transaminase [3, 12]: 33.67 IU/L
- SGPT (Serum glutamic pyruvic transaminase) [3, 12]: 36.5 IU/L
- Serum Creatinine [3, 12]: 38.5 µM
- Uric acid [3, 12]: 16.82 mg/L
- BUN (blood urea nitrogen) [3, 13]: 9.383 mmol/L
- SGOT Serum glutamic oxaloacetic transaminase [3, 13]: 29.33 IU/L
- SGPT (Serum glutamic pyruvic transaminase) [3, 13]: 32.17 IU/L
- Serum Creatinine [3, 13]: 37.5 µM
- Uric acid [3, 13]: 16.66 mg/L
- Effect on BUN level [3, 14]: significant (p<0.001) decrease in BUN level
- Effect on SGOT level [3, 14]: significant (p<0.001) decrease in SGOT
- Effect on SGPT level [3, 14]: significant reversal (p<0.001)
- Effect on serum creatinine level [3, 14]: significant (p<0.001) decrease in creatinine level
- Effect on uric acid level [3, 14]: significant reversal (p<0.001) of uric acid level

Compound: O=C(O)C=Cc1ccccc1 [The degraded Picroside 1 without salt, cinnamic acid]
- animal efficacy dose for anti-neutropenic activity ([4]; from 0.6 mg/mice (0.6 mg/25 g)): 24 mg/kg
- animal efficacy dose ([4]; from 6 mg/25 g mice): 240 mg cinnamic acid/kg
- % Lymphocytes [1, 15]: 46.5%
- % Monocytes [1, 15]: 6.50%
- % Neutrophils [1, 15]: 38.83%
- No of Platelets [1, 15]: 759400 per cu · mm of blood
- Total WBC Count [1, 15]: 7644 per cu · mm of blood
- % Lymphocytes [1, 16]: 83.5%
- % Monocytes [1, 16]: 1.82%
- % Neutrophils [1, 16]: 6.667%
- No of Platelets [1, 16]: 624000 per cu · mm of blood
- Total WBC Count [1, 16]: 2253 per cu · mm of blood
- % Lymphocytes [1, 17]: 58.83%
- % Monocytes [1, 17]: 5.50%
- % Neutrophils [1, 17]: 25.17%
- No of Platelets [1, 17]: 631900 per cu · mm of blood
- Total WBC Count [1, 17]: 3705 per cu · mm of blood
- Anti-neutropenic activity (words) ([1]; listed as the degraded Picroside 1 without salt): shows better anti-neutropenic activity
- BUN (blood urea nitrogen) [3, 18]: 9.467 mmol/L
- SGOT Serum glutamic oxaloacetic transaminase [3, 18]: 27.5 IU/L
- SGPT (Serum glutamic pyruvic transaminase) [3, 18]: 30.33 IU/L
- Serum Creatinine [3, 18]: 41 µM
- Uric acid [3, 18]: 21.50 mg/L
- Hepatic and renal parameters in neutropenic animal model ([3]; inference from table 8B, as compared to GCSF): improved hepatic and renal parameters
